Consider one compound from publication PMC12651750 (Cells, 2025).

Like-named read-outs stand apart in the source and are kept apart here.

Test [1] has as its system HUVEC, human umbilical vein endothelial cells. Briefly: Toxicity on normal cells (MTT / CCK-8 assay). Type of test: cell-based. Here is the method:
These cells were purchased from the National Collection of Authenticated Cell Cultures (Shanghai, China).
The concentration of the cell suspension was adjusted to the appropriate concentration with fresh medium (the number of cells was about 30–40% of the bottom area of the well plate). 150 μL (about 1 × 10^4 cells) of prepared cell suspension containing different concentrations of NBU-2 were added to a 96-microtiter plate, and 3 replicate wells were set up for each concentration. If the cells were adherent, the cells were first allowed to grow overnight in 96 microtiter plates until the cells were adherent, and then the old medium was replaced with the drug-containing medium. The plates were incubated in a 5% CO2 cell incubator at 37 °C for 72 h. Then, 15 μL of MTT solution was added to each well, 100 μL of 10% SDS solution (pH = 2) was added after 4 h, and the plate was incubated at 37 °C with 5% CO2 overnight to fully dissolve the crystals.
The cells (about 1 × 10^4 cells) were treated with different concentrations of NBU-2 and DMSO control for different times (24 h, 48 h, 72 h), with 3 replicate wells for each concentration. Incubate at 37 °C in a 5% CO2 cell culture incubator. After a predetermined time, 10 μL of CCK-8 was added to each well and incubated for 2 h. The absorbance was measured at the excitation wavelength of 450 nm.
On the technique in general: Tetrazolium assays rely on reduction of a dye to a coloured formazan, in cell work by metabolically active cells.

Another test has as its system Jurkat cells. Briefly: Western blot of protein levels. It is filed as cell-based, human. The conditions noted are these: 0.2, 1, 5 µM, 48 h. Here is the method: Jurkat cells were stimulated with NBU-2 (0.2 µM, 1 µM, 5 µM) and DMSO, respectively, for 48 h. Cells were lysed by the addition of appropriate RIPA Lysis Buffer (containing protease inhibitors and phosphatase inhibitors), and protein concentrations were determined using the BCA assay. Centrifuge the above cell lysates at 12,000× g for 10 min at 4 °C and retain the supernatant. After diluting the samples to the same concentration with lysate, add the corresponding volume of SDS-PAGE protein uploading buffer (5×), and the proteins were denatured by boiling at 100 °C for 10 min. According to the molecular weight of the target protein, we selected the corresponding concentration of the gel for electrophoresis. After electrophoresis, the proteins on the gel were transferred to the PVDF membrane. The transfer time could be adjusted appropriately according to the molecular weight of the proteins. Subsequently, the corresponding protein primary antibody was taken, and the corresponding antibody was diluted according to the instructions and incubated overnight at 4 °C on a shaker. The following day, it was conjugated to the secondary antibody. The protein bands were then visualized under the ChemiDoc system using the chemiluminescent developer. Antibodies HDAC1 (Cat#10197-1-AP), HDAC6 (Cat#12834-1-AP), Bax (Cat#60267-1-1), BAD (Cat#10435-1-AP), Bcl-2 (Cat#12789-1-AP), Bcl-xl (Cat#10783-1-AP), Caspase3/P17/P19 (Cat#19677-1-AP), Caspase8/P43/P18 (Cat#13423-1-AP), and P21 (Cat#10355-1-AP) were purchased from Wuhan, China. Antibody actin (Cat#21338-1) was purchased from SAB, China. Acetyl-Histone H3 (Cat#AF1684), Acetyl-Histone H4 (Cat#AJ4218), Phos-AKT1 (Cat#AF1546), CDK4 (Cat#AF2515), Cyclin D1 (Cat#AF0126), and Phos-RB1 (Cat#AF1135) were purchased from Beyotime International, Nantong, China. H3 (Cat#A2348) and Caspase3 (A19653) were purchased from ABclonal, Wuhan, China. Cleaved-Caspase9 (Cat#52873T) was purchased from Cell Signal Technology, Danvers, MA, USA.
(A western blot detects proteins with antibodies after separation by electrophoresis.)

A further test deals with HDAC1 (Homo sapiens, UniProt Q13547). Briefly: In vitro HDAC enzymatic inhibition assay (HDAC kit, fluorescence).
Sequence of HDAC1 (Q13547 whole entry): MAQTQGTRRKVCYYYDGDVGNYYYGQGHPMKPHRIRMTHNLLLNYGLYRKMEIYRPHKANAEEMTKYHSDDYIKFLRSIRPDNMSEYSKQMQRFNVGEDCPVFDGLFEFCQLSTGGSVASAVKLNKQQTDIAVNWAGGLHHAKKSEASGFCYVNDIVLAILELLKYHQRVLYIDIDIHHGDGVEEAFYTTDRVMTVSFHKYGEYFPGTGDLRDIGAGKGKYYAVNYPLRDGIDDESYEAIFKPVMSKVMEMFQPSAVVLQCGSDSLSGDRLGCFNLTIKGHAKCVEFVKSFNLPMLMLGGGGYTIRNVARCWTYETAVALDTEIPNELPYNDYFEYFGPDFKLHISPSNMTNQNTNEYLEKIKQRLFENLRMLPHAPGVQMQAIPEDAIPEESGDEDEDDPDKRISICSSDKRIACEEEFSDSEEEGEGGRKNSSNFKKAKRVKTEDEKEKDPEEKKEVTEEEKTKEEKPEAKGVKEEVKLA

Description for HDAC1: Enzymatic assays were performed by Shanghai ChemPartner according to the HDAC kit protocol. […] Fluorescence was recorded at 355 nm excitation and 460 nm emission on a Synergy MX reader (PerkinElmer Life Sciences, Boston, MA, USA). IC50 values were derived from dose–response curves.

For `Cc1cccc2c(=O)c3c(NCCCCCC(=O)NO)ccc([N+](=O)[O-])c3[nH]c12` [NBU-2, N-hydroxy-6-((5-methyl-4-nitro-9-oxo-9,10-dihydroacridin-1-yl)amino)hexanamide], the IC50 in test [1] (72 h, read-out: IC50 anti-proliferative activity against HUVECs) turned out to be 35.6 µM. Moreover, the IC50 in test [1] (read-out: IC50 proliferation HUVEC (normal cells), heading: IC50 proliferation HUVEC, 72 h, mean ± SEM of three independent assays) stood at 35.6 ± 7.3 µM. In addition, in the test with Jurkat cells, the Ac-H4 level result is “no significant change”, the BAD expression result is “unaffected”, the Bcl-2 expression result is “reduced” and the Bcl-XL expression result is recorded as “reduced”. Besides, in the test with Jurkat cells, the “Caspase-3 (prototype) expression” value is listed as “did not affect”, the “Caspase-8 (prototype) expression” value was “did not affect”, the “Caspase-9 (prototype) expression” value is reported as “did not affect” and the “HDAC1 protein expression level” value is “not affected”. Besides, in the test with Jurkat cells, the “HDAC6 protein expression level” value is “not affected”, the “Protein level of p-Akt (Ser473)” value is listed as “significantly reduced” and the “Total histone H3” value is “not affected”. Also, in the test with Jurkat cells (concentration-dependent), the CDK4 expression result is “inhibited”, the “Cyclin D1 expression” value is listed as “inhibited”, the “Intracellular Ac-H3 protein level” value was “significantly increased” and the p21 expression result is given as “increased”. Besides, the BAX expression entry in the test with Jurkat cells (with concentration) was “increased”. Besides, in the test on Jurkat cells (with increasing concentration), the Cleaved-Caspase-3 expression result is recorded as “increased”, the Cleaved-Caspase-9 expression result is listed as “increased” and the p-Rb expression entry was “decreased”. The same compound registered an IC50 against HDAC1 of 0.00775 ± 0.00057 µM.
